Data published in PubChem BioAssay (NCI).
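The concentration for 50% growth inhibition is given as GI50. TGI: total growth inhibition.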

Tests used:
Test in all cases: inhibition of tumour cell growth, NCI panel, 384-well format
RXF 393 renal = tested on: RXF 393 renal
HCC-2998 colon = tested on: HCC-2998 colon
HOP-62 NSCLC = tested on: HOP-62 NSCLC
786-0 renal = tested on: 786-0 renal
HCT-116 colon = tested on: HCT-116 colon
ACHN renal = tested on: ACHN renal
HOP-92 NSCLC = tested on: HOP-92 NSCLC
T-47D breast = tested on: T-47D breast
OVCAR-3 ovarian = tested on: OVCAR-3 ovarian
HCT-15 colon = tested on: HCT-15 colon
MDA-MB-231 breast = tested on: MDA-MB-231 breast
M14 melanoma = tested on: M14 melanoma
HT29 colon = tested on: HT29 colon
EKVX NSCLC = tested on: EKVX NSCLC
A498 renal = tested on: A498 renal
PC-3 prostate = tested on: PC-3 prostate
TK-10 renal = tested on: TK-10 renal
IGROV1 ovarian = tested on: IGROV1 ovarian
SK-MEL-5 melanoma = tested on: SK-MEL-5 melanoma
OVCAR-4 ovarian = tested on: OVCAR-4 ovarian
LOX IMVI melanoma = tested on: LOX IMVI melanoma
NCI-H226 lung = tested on: NCI-H226 lung
HS 578T breast = tested on: HS 578T breast
CCRF-CEM leukemia = tested on: CCRF-CEM leukemia
SR leukemia = tested on: SR leukemia
MALME-3M melanoma = tested on: MALME-3M melanoma
SK-OV-3 ovarian = tested on: SK-OV-3 ovarian
UACC-62 melanoma = tested on: UACC-62 melanoma
COLO 205 colon = tested on: COLO 205 colon
UACC-257 melanoma = tested on: UACC-257 melanoma
RPMI-8226 leukemia = tested on: RPMI-8226 leukemia
NCI-H460 NSCLC = tested on: NCI-H460 NSCLC
MOLT-4 leukemia = tested on: MOLT-4 leukemia
MDA-MB-435 melanoma = tested on: MDA-MB-435 melanoma
SNB-19 CNS = tested on: SNB-19 CNS
DU-145 prostate = tested on: DU-145 prostate
HL-60(TB) leukemia = tested on: HL-60(TB) leukemia
CAKI-1 renal = tested on: CAKI-1 renal
SW-620 colon = tested on: SW-620 colon
NCI-H522 lung = tested on: NCI-H522 lung
SF-295 CNS = tested on: SF-295 CNS
MCF7 breast = tested on: MCF7 breast
SF-539 CNS = tested on: SF-539 CNS
SNB-75 CNS = tested on: SNB-75 CNS
SF-268 CNS = tested on: SF-268 CNS
SK-MEL-28 melanoma = tested on: SK-MEL-28 melanoma
NCI/ADR-RES ovarian = tested on: NCI/ADR-RES ovarian
U251 glioblastoma = tested on: U251 glioblastoma
A549 NSCLC = tested on: A549 NSCLC
OVCAR-8 ovarian = tested on: OVCAR-8 ovarian
BT-549 breast = tested on: BT-549 breast
KM12 colon = tested on: KM12 colon
NCI-H322M lung = tested on: NCI-H322M lung
SN12C renal = tested on: SN12C renal
K-562 leukemia = tested on: K-562 leukemia
NCI-H23 lung = tested on: NCI-H23 lung
UO-31 renal = tested on: UO-31 renal
MDA-MB-468 breast = tested on: MDA-MB-468 breast

Nc1ncccc1-c1nc2ccc(-c3ccccc3)nc2n1-c1ccc(C2(N)CCC2)cc1
GI50 (RXF 393 renal): 582 nM
TGI (RXF 393 renal): 1910 nM
GI50 (HCC-2998 colon): 1350 nM
TGI (HCC-2998 colon): 2640 nM
GI50 (HOP-62 NSCLC): 1610 nM
TGI (HOP-62 NSCLC): 3020 nM
GI50 ([…]-0 renal): 1040 nM
TGI (786-0 renal): 2220 nM
GI50 (HCT-116 colon): 1500 nM
TGI (HCT-116 colon): 2830 nM
GI50 (ACHN renal): 1720 nM
TGI (ACHN renal): 4040 nM
GI50 (HOP-92 NSCLC): 1400 nM
TGI (HOP-92 NSCLC): 3120 nM
GI50 (T-47D breast): 35.5 nM
TGI (T-47D breast): 1040 nM
GI50 (OVCAR-3 ovarian): 476 nM
TGI (OVCAR-3 ovarian): 2050 nM
GI50 (HCT-15 colon): 1240 nM
TGI (HCT-15 colon): 2490 nM
GI50 (MDA-MB-231 breast): 1430 nM
TGI (MDA-MB-231 breast): 2790 nM
GI50 (M14 melanoma): 1370 nM
TGI (M14 melanoma): 2660 nM
GI50 (HT29 colon): 1100 nM
TGI (HT29 colon): 2340 nM
GI50 (EKVX NSCLC): 1640 nM
TGI (EKVX NSCLC): 5080 nM
GI50 (A498 renal): 234 nM
TGI (A498 renal): 1310 nM
GI50 (PC-3 prostate): 139 nM
TGI (PC-3 prostate): 1630 nM
GI50 (TK-10 renal): 1240 nM
TGI (TK-10 renal): 2600 nM
GI50 (IGROV1 ovarian): 187 nM
TGI (IGROV1 ovarian): 1810 nM
GI50 (SK-MEL-5 melanoma): 1450 nM
TGI (SK-MEL-5 melanoma): 2770 nM
GI50 (OVCAR-4 ovarian): 3620 nM
TGI (OVCAR-4 ovarian): 12100 nM
GI50 (LOX IMVI melanoma): 1740 nM
TGI (LOX IMVI melanoma): 3110 nM
GI50 (NCI-H226 lung): 1420 nM
TGI (NCI-H226 lung): 3340 nM
GI50 (HS 578T breast): 1030 nM
TGI (HS 578T breast): 2200 nM
GI50 (CCRF-CEM leukemia): 285 nM
TGI (CCRF-CEM leukemia): 1760 nM
GI50 (SR leukemia): 96.6 nM
TGI (SR leukemia): 1260 nM
GI50 (MALME-3M melanoma): 464 nM
TGI (MALME-3M melanoma): 1910 nM
GI50 (SK-OV-3 ovarian): 547 nM
TGI (SK-OV-3 ovarian): 2190 nM
GI50 (UACC-62 melanoma): 1160 nM
TGI (UACC-62 melanoma): 2390 nM
GI50 (COLO 205 colon): 1030 nM
TGI (COLO 205 colon): 2210 nM
GI50 (UACC-257 melanoma): 1460 nM
TGI (UACC-257 melanoma): 2770 nM
GI50 (RPMI-8226 leukemia): 1420 nM
TGI (RPMI-8226 leukemia): 2720 nM
GI50 (NCI-H460 NSCLC): 359 nM
TGI (NCI-H460 NSCLC): 1820 nM
GI50 (MOLT-4 leukemia): 154 nM
TGI (MOLT-4 leukemia): 1210 nM
GI50 (MDA-MB-435 melanoma): 1750 nM
TGI (MDA-MB-435 melanoma): 3130 nM
GI50 (SNB-19 CNS): 1760 nM
TGI (SNB-19 CNS): 3170 nM
GI50 (DU-145 prostate): 2420 nM
TGI (DU-145 prostate): 8300 nM
GI50 (HL-60(TB) leukemia): 1820 nM
TGI (HL-60(TB) leukemia): 3210 nM
GI50 (CAKI-1 renal): 1050 nM
TGI (CAKI-1 renal): 2270 nM
GI50 (SW-620 colon): 1790 nM
TGI (SW-620 colon): 3180 nM
GI50 (NCI-H522 lung): 1560 nM
TGI (NCI-H522 lung): 2900 nM
GI50 (SF-295 CNS): 1050 nM
TGI (SF-295 CNS): 2230 nM
GI50 (MCF7 breast): 96.3 nM
TGI (MCF7 breast): 1540 nM
GI50 (SF-539 CNS): 1160 nM
TGI (SF-539 CNS): 2380 nM
GI50 (SNB-75 CNS): 597 nM
TGI (SNB-75 CNS): 2020 nM
GI50 (SF-268 CNS): 1590 nM
TGI (SF-268 CNS): 2960 nM
GI50 (SK-MEL-28 melanoma): 1220 nM
TGI (SK-MEL-28 melanoma): 2460 nM
GI50 (NCI/ADR-RES ovarian): 1950 nM
TGI (NCI/ADR-RES ovarian): 4120 nM
GI50 (U251 glioblastoma): 1460 nM
TGI (U251 glioblastoma): 2770 nM
GI50 (A549 NSCLC): 1760 nM
TGI (A549 NSCLC): 4170 nM
GI50 (OVCAR-8 ovarian): 1430 nM
TGI (OVCAR-8 ovarian): 2750 nM
GI50 (BT-549 breast): 1050 nM
TGI (BT-549 breast): 2250 nM
GI50 (KM12 colon): 1540 nM
TGI (KM12 colon): 3270 nM
GI50 (NCI-H322M lung): 1380 nM
TGI (NCI-H322M lung): 2960 nM
GI50 (SN12C renal): 2390 nM
TGI (SN12C renal): 14400 nM
GI50 (K-562 leukemia): 1600 nM
TGI (K-562 leukemia): 2950 nM
GI50 (NCI-H23 lung): 2400 nM
TGI (NCI-H23 lung): 8070 nM
GI50 (UO-31 renal): 1320 nM
TGI (UO-31 renal): 2600 nM
GI50 (MDA-MB-468 breast): 226 nM
TGI (MDA-MB-468 breast): 1420 nM
